According to ChEMBL document CHEMBL1201862, “PubChem BioAssay data set” (2004):
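1) Cells in 96-well plates. 2) Compound, 48 h, 5 concentrations. 3) Linear interpolation between surrounding doses. 4) Unreached endpoint = highest concentration. The concentration for 50% growth inhibition is given as GI50.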 Active and inactive are the calls of the source. Rule as the data show it: active = GI50 up to about 1.1 µM and inactive = higher.

What was measured:
Test in all cases: DTP human tumour cell line panel, 48 h
OVCAR-5 = tested on: OVCAR-5
RPMI-8226 = tested on: RPMI-8226
MCF7 = tested on: MCF7
NCI-H522 = tested on: NCI-H522
SR = tested on: SR
SF-539 = tested on: SF-539
A549 = tested on: A549
UACC-257 = tested on: UACC-257
NCI-H226 = tested on: NCI-H226
EKVX = tested on: EKVX
HOP-62 = tested on: HOP-62
A498 = tested on: A498
OVCAR-8 = tested on: OVCAR-8
SW-620 = tested on: SW-620
LOX IMVI = tested on: LOX IMVI
MDA-N = tested on: MDA-N
T47D = tested on: T47D
MDA-MB-231 = tested on: MDA-MB-231
Malme-3M = tested on: Malme-3M
SNB-19 = tested on: SNB-19

Row | Structure (SMILES) | GI50 (OVCAR-5) | GI50 (RPMI-8226) | GI50 (MCF7) | GI50 (NCI-H522) | GI50 (SR) | GI50 (SF-539) | GI50 (A549) | GI50 (UACC-257) | GI50 (NCI-H226) | GI50 (EKVX) | GI50 (HOP-62) | GI50 (A498) | GI50 (OVCAR-8) | GI50 (SW-620) | GI50 (LOX IMVI) | GI50 (MDA-N) | GI50 (T47D) | GI50 (MDA-MB-231) | GI50 (Malme-3M) | GI50 (SNB-19)
1 | CC1=NN(c2cccc(Cl)c2)C2(SCC(=O)N2c2nc3ccccc3s2)/C1=C\c1cccs1 (centres undefined) | 20.8 µM (inactive) | 17.7 µM (inactive) | 27.4 µM (inactive) | 21.2 µM (inactive) | 11.7 µM (inactive) | 5.01 µM (inactive) | 33.8 µM (inactive) | 24.4 µM (inactive) | 20.3 µM (inactive) | 14.6 µM (inactive) | 28.2 µM (inactive) | 25.4 µM (inactive) | 20.8 µM (inactive) | 34.3 µM (inactive) | 23.8 µM (inactive) | 21.1 µM (inactive) | 24.9 µM (inactive) | 30.2 µM (inactive) |  | 
2 | CC(=O)OC1CC2C(=O)C(=O)C1(C)C2(C)C (centres undefined) | > 100 µM (inactive) | > 100 µM (inactive) | > 100 µM (inactive) |  | > 100 µM (inactive) |  | > 100 µM (inactive) | > 100 µM (inactive) | > 100 µM (inactive) | > 100 µM (inactive) | > 100 µM (inactive) | > 100 µM (inactive) | > 100 µM (inactive) | > 100 µM (inactive) |  | > 100 µM (inactive) | > 100 µM (inactive) | > 100 µM (inactive) | > 100 µM (inactive) | > 100 µM (inactive)
3 | CC(C(=O)ON1C(=O)CCC1=O)c1ccc(C(=O)c2ccccc2)s1 (centres undefined) | > 100 µM (inactive) | > 100 µM (inactive) | > 100 µM (inactive) | > 100 µM (inactive) | > 100 µM (inactive) |  | > 100 µM (inactive) | > 100 µM (inactive) | > 100 µM (inactive) | > 100 µM (inactive) | > 100 µM (inactive) | > 100 µM (inactive) | > 100 µM (inactive) | > 100 µM (inactive) | > 100 µM (inactive) | > 100 µM (inactive) | > 100 µM (inactive) | > 100 µM (inactive) | > 100 µM (inactive) | > 100 µM (inactive)
4 | O=c1c2cc([N+](=O)[O-])ccc2oc2nc3n(c(=O)c12)CCCS3 | > 100 µM (inactive) | > 100 µM (inactive) | > 100 µM (inactive) | > 100 µM (inactive) | > 100 µM (inactive) | > 100 µM (inactive) | > 100 µM (inactive) | > 100 µM (inactive) | > 100 µM (inactive) | > 100 µM (inactive) | 40.9 µM (inactive) | > 100 µM (inactive) |  | > 100 µM (inactive) |  | > 100 µM (inactive) | > 100 µM (inactive) | > 100 µM (inactive) | > 100 µM (inactive) | > 100 µM (inactive)
5 | CCOC(=O)n1c(=O)nc2c3c(ncn21)Oc1c(c(-c2ccccc2)nn1-c1ccccc1)C3c1ccc(Cl)cc1 (centres undefined) | 2.1 µM (inactive) | 1.46 µM (inactive) | 1.56 µM (inactive) | 1.73 µM (inactive) | 1.35 µM (inactive) | 1.56 µM (inactive) | 1.65 µM (inactive) | 1.8 µM (inactive) | 1.63 µM (inactive) |  | 1.77 µM (inactive) | 1.79 µM (inactive) | 1.69 µM (inactive) | 1.71 µM (inactive) | 1.46 µM (inactive) | 1.65 µM (inactive) | 1.77 µM (inactive) | 1.4 µM (inactive) | 1.84 µM (inactive) | 1.61 µM (inactive)
6 | N/C(S)=N/N=C/c1ncccc1O | 3.1 µM (inactive) |  | 0.723 µM (active) |  | 3.01 µM (inactive) |  | 2.32 µM (inactive) | 2.49 µM (inactive) | 2.95 µM (inactive) | 2.35 µM (inactive) | 1.23 µM (inactive) | 2.25 µM (inactive) |  | 1.64 µM (inactive) | 0.925 µM (active) | 3.77 µM (inactive) | 3.14 µM (inactive) | 4.29 µM (inactive) | 1.95 µM (inactive) | 2.65 µM (inactive)
7 | COC(=O)C1C(C(=O)OC)C2(OC(c3ccc(Cl)cc3)=CC2=O)C12OC(c1ccc(Cl)cc1)=CC2=O (centres undefined) | 24.3 µM (inactive) | 7.21 µM (inactive) | 18 µM (inactive) | 18.4 µM (inactive) | 1.96 µM (inactive) | 18.3 µM (inactive) | 34.1 µM (inactive) | 22.9 µM (inactive) | 28.4 µM (inactive) | 22.3 µM (inactive) | > 10 µM (inactive) | 29.9 µM (inactive) |  | 32.7 µM (inactive) | 23.1 µM (inactive) | 18.3 µM (inactive) | 14.8 µM (inactive) | 26.4 µM (inactive) | 17.3 µM (inactive) | 43.2 µM (inactive)
8 | CCN(CC)CCC1CCCCN1CC(=O)N1c2ccccc2NC(=O)c2ccccc21 (centres undefined) | > 100 µM (inactive) | > 100 µM (inactive) | > 100 µM (inactive) | > 100 µM (inactive) | > 100 µM (inactive) | > 100 µM (inactive) | > 100 µM (inactive) | > 100 µM (inactive) | > 100 µM (inactive) | > 100 µM (inactive) | > 100 µM (inactive) | > 100 µM (inactive) | > 100 µM (inactive) |  | > 100 µM (inactive) | > 100 µM (inactive) | > 100 µM (inactive) | > 100 µM (inactive) | > 100 µM (inactive) | > 100 µM (inactive)
9 | O=C(CC(O)(C(F)(F)Cl)C(F)(F)Cl)CC(O)(C(F)(F)Cl)C(F)(F)Cl |  | 0.516 µM (active) | 2.14 µM (inactive) | 1.2 µM (inactive) | 2.65 µM (inactive) | 2.95 µM (inactive) | 1.73 µM (inactive) | 1.41 µM (inactive) | 1.33 µM (inactive) | 1.21 µM (inactive) | 1.98 µM (inactive) | 2.21 µM (inactive) | 2.58 µM (inactive) | 3.36 µM (inactive) | 3.83 µM (inactive) | 3.49 µM (inactive) | 0.647 µM (active) | 2.05 µM (inactive) | 0.483 µM (active) | 1.71 µM (inactive)
10 | c1csc(-c2cc(-c3cccs3)c(-c3ccsc3)s2)c1 |  | 96.2 µM (inactive) | 24.7 µM (inactive) |  | > 100 µM (inactive) | > 100 µM (inactive) | > 100 µM (inactive) | 58.1 µM (inactive) | > 100 µM (inactive) | > 100 µM (inactive) | > 100 µM (inactive) | > 100 µM (inactive) | > 100 µM (inactive) | > 100 µM (inactive) | > 100 µM (inactive) | > 100 µM (inactive) | 17.6 µM (inactive) | > 100 µM (inactive) | > 100 µM (inactive) | > 100 µM (inactive)
11 | O=[N+]([O-])c1ccc2nc3n(c2c1)C(c1c(F)cccc1F)SC3 (centres undefined) | > 100 µM (inactive) | > 10 µM (inactive) | > 100 µM (inactive) |  | 92.3 µM (inactive) |  | > 10 µM (inactive) | > 100 µM (inactive) | > 100 µM (inactive) | > 100 µM (inactive) | > 100 µM (inactive) | > 100 µM (inactive) | > 10 µM (inactive) | > 100 µM (inactive) | > 100 µM (inactive) | > 100 µM (inactive) | > 10 µM (inactive) | > 100 µM (inactive) | > 100 µM (inactive) | > 100 µM (inactive)
12 | COc1ccc(C2SC(=N)Nc3c2c(C)nn3C(=O)c2ccccc2O)cc1OC (centres undefined) | > 10 µM (inactive) | 6.28 µM (inactive) | 3.3 µM (inactive) |  | 4.75 µM (inactive) | 2.84 µM (inactive) | 3.4 µM (inactive) | > 10 µM (inactive) | 4.32 µM (inactive) | > 10 µM (inactive) | 6.92 µM (inactive) | 5.93 µM (inactive) |  | > 10 µM (inactive) | 4.58 µM (inactive) | 6.08 µM (inactive) | 3.18 µM (inactive) | 7.5 µM (inactive) | 6.3 µM (inactive) | 5.42 µM (inactive)
13 | COc1c2cc(C(C)(C)C)cc1CSCc1cc(C(C)(C)C)cc(c1OC)CCCCC2 | > 50 µM (inactive) |  | > 50 µM (inactive) |  | > 50 µM (inactive) | 19.6 µM (inactive) | 37.7 µM (inactive) | 13.3 µM (inactive) | 20.5 µM (inactive) |  | > 50 µM (inactive) | 38.6 µM (inactive) | 28.2 µM (inactive) | > 50 µM (inactive) |  | > 50 µM (inactive) | 30 µM (inactive) | 46.8 µM (inactive) | 29 µM (inactive) | 20.2 µM (inactive)
14 | COc1cc2c(c(OC)c1OC)-c1ccc(OC)c(=O)cc1[C@@H](NC(=O)c1ccccc1)CC2 | 1.07 µM (active) | 0.0608 µM (active) | < 0.0146 µM (active) | 0.0114 µM (active) | 0.155 µM (active) |  | 0.018 µM (active) | 0.148 µM (active) | 0.067 µM (active) | 5.15 µM (inactive) | 0.0379 µM (active) | < 0.0121 µM (active) |  | 0.0119 µM (active) | 0.0142 µM (active) | < 0.01 µM (active) | 58.3 µM (inactive) | 0.0151 µM (active) | 0.016 µM (active) | 
15 | c1cncc(CSc2ncnc3[nH]cnc23)c1 | > 100 µM (inactive) |  | > 100 µM (inactive) | > 100 µM (inactive) | > 100 µM (inactive) |  | > 100 µM (inactive) | > 100 µM (inactive) | > 100 µM (inactive) | > 100 µM (inactive) | > 100 µM (inactive) | > 100 µM (inactive) | > 100 µM (inactive) | > 100 µM (inactive) | > 100 µM (inactive) | > 100 µM (inactive) | > 100 µM (inactive) | > 100 µM (inactive) | > 100 µM (inactive) | > 100 µM (inactive)
